For test [1], the target named is Cyclin-dependent kinase 8 (Homo sapiens) (UniProt P49336). The test can be described thus: Selectivity interaction (KinomeScan (DiscoverX)) EUB0000239b CDK8. The following applies: at 1 µM.
For test [2], the target named is Homeodomain-interacting protein kinase 1 (Homo sapiens, UniProt Q86Z02). The test can be described thus: Selectivity interaction (KinomeScan (DiscoverX)) EUB0000239b HIPK1. The following applies: at 1 µM.
The target of test [3] is Sodium/nucleoside cotransporter 2 (Homo sapiens) (UniProt O43868). The test can be described thus: Selectivity interaction (Enzyme panel (receptors, ion channels, enzymes, and transporters)) EUB0000239b SLC28A2. The following applies: at 10 µM.
Test [4] addresses Serine/threonine-protein kinase Nek3 (Homo sapiens) (UniProt P51956). Description: Selectivity interaction (KinomeScan (DiscoverX)) EUB0000239b NEK3. The settings on record: at 1 µM.
For test [5], the target named is Cathepsin G (Homo sapiens) (UniProt P08311). Description: Selectivity interaction (Protease panel (enzymatic assay)) EUB0000239b CTSG. The following applies: at 10 µM.
Chain of Cathepsin G (Homo sapiens) (P08311 whole entry): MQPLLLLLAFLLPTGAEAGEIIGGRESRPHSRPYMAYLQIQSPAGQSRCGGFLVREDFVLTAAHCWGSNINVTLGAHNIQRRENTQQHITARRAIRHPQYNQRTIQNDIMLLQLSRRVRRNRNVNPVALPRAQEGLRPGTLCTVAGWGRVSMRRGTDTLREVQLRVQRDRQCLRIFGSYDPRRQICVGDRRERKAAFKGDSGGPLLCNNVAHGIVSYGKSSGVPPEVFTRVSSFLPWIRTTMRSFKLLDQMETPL
Test [6] deals with T1, Receptor-type tyrosine-protein kinase FLT3 (Homo sapiens), P36888 [N841I].
T1 sequence (whole entry): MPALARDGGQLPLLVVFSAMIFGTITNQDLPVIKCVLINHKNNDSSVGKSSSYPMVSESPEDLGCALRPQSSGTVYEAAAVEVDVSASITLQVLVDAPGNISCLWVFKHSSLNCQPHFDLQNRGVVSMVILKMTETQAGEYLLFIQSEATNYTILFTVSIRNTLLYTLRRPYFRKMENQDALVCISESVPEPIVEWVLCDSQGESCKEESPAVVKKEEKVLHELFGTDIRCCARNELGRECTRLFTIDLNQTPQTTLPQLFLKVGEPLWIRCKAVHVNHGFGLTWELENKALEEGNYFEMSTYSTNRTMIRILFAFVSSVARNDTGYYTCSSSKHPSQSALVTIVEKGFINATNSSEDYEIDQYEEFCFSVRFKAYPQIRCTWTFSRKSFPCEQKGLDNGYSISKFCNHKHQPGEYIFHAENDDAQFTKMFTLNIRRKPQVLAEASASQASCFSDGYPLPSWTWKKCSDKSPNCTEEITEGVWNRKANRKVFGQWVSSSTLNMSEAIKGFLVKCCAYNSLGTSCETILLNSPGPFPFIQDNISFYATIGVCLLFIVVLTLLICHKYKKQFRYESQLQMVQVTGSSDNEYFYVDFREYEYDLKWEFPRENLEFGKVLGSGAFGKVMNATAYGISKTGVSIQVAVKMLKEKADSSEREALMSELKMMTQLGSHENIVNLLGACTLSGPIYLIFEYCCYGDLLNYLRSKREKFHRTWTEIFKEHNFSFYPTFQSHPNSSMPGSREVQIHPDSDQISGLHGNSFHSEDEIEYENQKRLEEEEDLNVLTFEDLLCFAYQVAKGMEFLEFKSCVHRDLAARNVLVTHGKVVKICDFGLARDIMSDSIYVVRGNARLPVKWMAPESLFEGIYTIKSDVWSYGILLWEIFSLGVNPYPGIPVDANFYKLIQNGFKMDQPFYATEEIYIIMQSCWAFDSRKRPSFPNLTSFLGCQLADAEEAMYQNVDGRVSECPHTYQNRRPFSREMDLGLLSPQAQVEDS
Description: Selectivity interaction (KinomeScan (DiscoverX)) EUB0000239b FLT3. The following applies: at 1 µM.

Test [7] concerns the target Sigma intracellular receptor 2 (Homo sapiens, UniProt Q5BJF2). Description: Selectivity interaction (GPCR panel (PDSP screen)) EUB0000239b TMEM97. The following applies: at 10 µM.
Test [8] concerns Phosphatidylinositol 4,5-bisphosphate 3-kinase catalytic subunit alpha isoform (Homo sapiens), P42336 [E545K]. The test can be described thus: Selectivity interaction (KinomeScan (DiscoverX)) EUB0000239b PIK3CA. The settings on record: at 1 µM.
The target of test [9] is Microtubule-associated serine/threonine-protein kinase 1 (Homo sapiens) (UniProt Q9Y2H9). Description: Selectivity interaction (KinomeScan (DiscoverX)) EUB0000239b MAST1. The settings on record: at 1 µM.
Chain of Microtubule-associated serine/threonine-protein kinase 1 (Homo sapiens) (Q9Y2H9 whole entry, looked up): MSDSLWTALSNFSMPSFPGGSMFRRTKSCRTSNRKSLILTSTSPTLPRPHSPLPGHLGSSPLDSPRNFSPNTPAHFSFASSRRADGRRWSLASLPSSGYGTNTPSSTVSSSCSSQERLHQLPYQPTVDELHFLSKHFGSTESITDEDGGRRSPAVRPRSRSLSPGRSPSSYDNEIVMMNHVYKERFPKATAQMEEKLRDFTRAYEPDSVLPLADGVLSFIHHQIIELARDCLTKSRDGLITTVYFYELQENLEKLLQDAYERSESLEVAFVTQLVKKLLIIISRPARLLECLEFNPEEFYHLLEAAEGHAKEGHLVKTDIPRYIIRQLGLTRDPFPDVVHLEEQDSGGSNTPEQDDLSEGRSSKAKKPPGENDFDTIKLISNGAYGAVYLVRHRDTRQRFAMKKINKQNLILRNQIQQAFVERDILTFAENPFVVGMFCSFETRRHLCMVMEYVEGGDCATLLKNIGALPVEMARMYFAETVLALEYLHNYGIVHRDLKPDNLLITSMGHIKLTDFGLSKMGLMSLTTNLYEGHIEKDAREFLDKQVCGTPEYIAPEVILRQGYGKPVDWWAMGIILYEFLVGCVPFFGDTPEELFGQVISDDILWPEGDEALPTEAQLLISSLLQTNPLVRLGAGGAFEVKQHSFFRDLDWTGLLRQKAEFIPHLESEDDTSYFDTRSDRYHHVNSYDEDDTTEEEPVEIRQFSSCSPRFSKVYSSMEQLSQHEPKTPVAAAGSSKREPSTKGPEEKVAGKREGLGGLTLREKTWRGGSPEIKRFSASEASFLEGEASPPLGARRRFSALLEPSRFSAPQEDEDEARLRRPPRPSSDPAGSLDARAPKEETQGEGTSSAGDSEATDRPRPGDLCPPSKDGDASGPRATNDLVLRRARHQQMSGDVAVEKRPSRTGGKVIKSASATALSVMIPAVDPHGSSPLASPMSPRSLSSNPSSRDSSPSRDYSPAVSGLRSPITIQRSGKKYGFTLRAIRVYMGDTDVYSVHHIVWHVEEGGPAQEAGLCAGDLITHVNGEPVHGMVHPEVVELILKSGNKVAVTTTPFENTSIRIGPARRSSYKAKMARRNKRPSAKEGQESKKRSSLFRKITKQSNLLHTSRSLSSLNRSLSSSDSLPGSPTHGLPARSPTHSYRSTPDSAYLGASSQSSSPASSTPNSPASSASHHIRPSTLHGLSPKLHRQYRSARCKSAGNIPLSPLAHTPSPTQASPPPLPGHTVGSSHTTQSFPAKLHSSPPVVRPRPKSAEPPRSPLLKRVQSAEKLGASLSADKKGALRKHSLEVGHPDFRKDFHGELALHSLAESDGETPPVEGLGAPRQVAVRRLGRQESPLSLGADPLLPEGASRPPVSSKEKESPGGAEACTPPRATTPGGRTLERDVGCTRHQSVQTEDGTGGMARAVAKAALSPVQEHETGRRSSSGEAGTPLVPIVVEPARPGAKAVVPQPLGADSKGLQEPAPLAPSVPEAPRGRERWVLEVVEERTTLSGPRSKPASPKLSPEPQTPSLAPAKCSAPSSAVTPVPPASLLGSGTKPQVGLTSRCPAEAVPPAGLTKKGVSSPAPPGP
Test [10] addresses Kappa-type opioid receptor (Homo sapiens, UniProt P41145). The test can be described thus: Selectivity interaction (GPCR panel (PDSP screen)) EUB0000344a OPRK1. The settings on record: at 10 µM.
The test system of test [11] is Receptor-type tyrosine-protein kinase FLT3 (Homo sapiens), P36888 [K663Q]. Description: Selectivity interaction (KinomeScan (DiscoverX)) EUB0000344a FLT3. The following applies: at 1 µM.
Test [12] concerns the target Ribosomal protein S6 kinase beta-1 (Homo sapiens) (UniProt P23443). The test can be described thus: Selectivity interaction (KinomeScan (DiscoverX)) EUB0000344a RPS6KB1. The following applies: at 1 µM.
Test [13] has as its target T2, Dual specificity tyrosine-phosphorylation-regulated kinase 1B (Homo sapiens, UniProt Q9Y463). Description: Selectivity interaction (KinomeScan (DiscoverX)) EUB0000733a DYRK1B. The settings on record: at 1 µM.
Test [14] has as its target Muscarinic acetylcholine receptor M3 (Homo sapiens) (UniProt P20309). Description: Selectivity interaction (GPCR panel (PDSP screen)) EUB0000546a CHRM3. The following applies: at 10 µM.
Test [15] has as its target T3, Gamma-aminobutyric acid receptor subunit alpha-1 (Homo sapiens) (UniProt P14867).
T3 sequence (whole entry): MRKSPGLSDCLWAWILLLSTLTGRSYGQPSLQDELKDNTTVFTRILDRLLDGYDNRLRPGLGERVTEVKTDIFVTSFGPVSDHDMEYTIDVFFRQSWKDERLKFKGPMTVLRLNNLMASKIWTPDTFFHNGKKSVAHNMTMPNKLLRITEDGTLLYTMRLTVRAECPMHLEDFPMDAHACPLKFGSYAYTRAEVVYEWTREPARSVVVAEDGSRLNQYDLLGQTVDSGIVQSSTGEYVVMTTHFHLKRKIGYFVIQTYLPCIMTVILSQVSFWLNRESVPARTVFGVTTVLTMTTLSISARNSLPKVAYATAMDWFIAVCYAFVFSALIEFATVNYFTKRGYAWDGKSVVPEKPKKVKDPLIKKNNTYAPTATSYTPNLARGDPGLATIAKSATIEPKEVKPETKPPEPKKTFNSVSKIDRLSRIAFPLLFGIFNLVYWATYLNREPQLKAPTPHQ
The test can be described thus: Selectivity interaction (GPCR panel (PDSP screen)) EUB0000546a GABRA1. The settings on record: at 10 µM.

Test [16] concerns the target Epidermal growth factor receptor (Homo sapiens, UniProt P00533). The test can be described thus: Selectivity interaction (KinomeScan (DiscoverX)) EUB0000722a EGFR. The following applies: at 1 µM.
The target in test [17] is Ribosomal protein S6 kinase alpha-5 (Homo sapiens) (UniProt O75582). The test can be described thus: Selectivity interaction (KinomeScan (DiscoverX)) EUB0000722a RPS6KA5. The settings on record: at 1 µM.
Chain of Ribosomal protein S6 kinase alpha-5 (Homo sapiens) (O75582 whole entry, looked up): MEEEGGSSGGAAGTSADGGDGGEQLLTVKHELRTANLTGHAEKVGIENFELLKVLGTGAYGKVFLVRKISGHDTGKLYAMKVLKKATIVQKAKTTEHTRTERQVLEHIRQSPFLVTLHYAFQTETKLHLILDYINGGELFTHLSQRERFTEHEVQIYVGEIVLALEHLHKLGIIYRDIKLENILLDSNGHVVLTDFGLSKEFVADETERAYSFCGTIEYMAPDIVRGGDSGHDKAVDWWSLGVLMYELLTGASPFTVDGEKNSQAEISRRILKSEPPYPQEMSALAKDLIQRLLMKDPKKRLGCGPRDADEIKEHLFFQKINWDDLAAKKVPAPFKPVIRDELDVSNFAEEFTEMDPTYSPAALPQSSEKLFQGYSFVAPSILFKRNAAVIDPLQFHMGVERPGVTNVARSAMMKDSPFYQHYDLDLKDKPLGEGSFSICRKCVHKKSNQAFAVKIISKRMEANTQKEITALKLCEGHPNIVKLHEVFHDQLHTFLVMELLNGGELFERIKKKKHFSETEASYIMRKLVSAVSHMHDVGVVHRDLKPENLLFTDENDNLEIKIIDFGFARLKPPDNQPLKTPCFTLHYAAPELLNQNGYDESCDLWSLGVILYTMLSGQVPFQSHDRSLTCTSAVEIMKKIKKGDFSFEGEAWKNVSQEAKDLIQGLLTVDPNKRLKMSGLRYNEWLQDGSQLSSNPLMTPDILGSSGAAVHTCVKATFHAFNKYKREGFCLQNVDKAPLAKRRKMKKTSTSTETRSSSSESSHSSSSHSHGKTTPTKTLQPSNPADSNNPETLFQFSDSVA
In test [18] the target is T2, Dual specificity tyrosine-phosphorylation-regulated kinase 1B. Description: Selectivity interaction (KinomeScan (DiscoverX)) EUB0000313b DYRK1B. The following applies: at 1 µM.
Test [19] deals with Dual specificity tyrosine-phosphorylation-regulated kinase 1A (Homo sapiens, UniProt Q13627). The test can be described thus: Selectivity interaction (KinomeScan (DiscoverX)) EUB0000313b DYRK1A. The settings on record: at 1 µM.

T2 sequence (Q9Y463 whole entry, looked up): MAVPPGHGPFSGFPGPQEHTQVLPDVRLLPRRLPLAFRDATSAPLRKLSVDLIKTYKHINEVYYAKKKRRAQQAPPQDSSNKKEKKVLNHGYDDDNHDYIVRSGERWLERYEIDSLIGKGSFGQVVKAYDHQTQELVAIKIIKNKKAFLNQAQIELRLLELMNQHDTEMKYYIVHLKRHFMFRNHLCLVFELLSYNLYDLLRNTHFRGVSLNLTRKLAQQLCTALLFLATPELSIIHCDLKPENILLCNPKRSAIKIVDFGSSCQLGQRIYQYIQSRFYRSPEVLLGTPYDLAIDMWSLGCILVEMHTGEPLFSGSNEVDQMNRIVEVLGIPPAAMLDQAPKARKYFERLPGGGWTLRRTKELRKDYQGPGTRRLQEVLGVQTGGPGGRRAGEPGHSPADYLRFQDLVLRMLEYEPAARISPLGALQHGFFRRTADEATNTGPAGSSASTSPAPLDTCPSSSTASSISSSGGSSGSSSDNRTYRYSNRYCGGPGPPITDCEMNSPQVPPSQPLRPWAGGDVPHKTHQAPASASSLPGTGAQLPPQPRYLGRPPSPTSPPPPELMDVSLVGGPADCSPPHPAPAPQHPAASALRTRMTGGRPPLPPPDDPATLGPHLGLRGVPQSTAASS
Chain of Sigma intracellular receptor 2 (Q5BJF2 whole entry, canonical isoform): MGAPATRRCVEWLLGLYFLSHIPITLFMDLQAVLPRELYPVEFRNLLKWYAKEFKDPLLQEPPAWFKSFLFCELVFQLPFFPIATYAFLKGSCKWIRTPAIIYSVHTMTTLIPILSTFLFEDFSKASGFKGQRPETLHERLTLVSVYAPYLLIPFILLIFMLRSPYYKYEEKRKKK
Chain of Ribosomal protein S6 kinase beta-1 (Homo sapiens) (P23443 whole entry, looked up): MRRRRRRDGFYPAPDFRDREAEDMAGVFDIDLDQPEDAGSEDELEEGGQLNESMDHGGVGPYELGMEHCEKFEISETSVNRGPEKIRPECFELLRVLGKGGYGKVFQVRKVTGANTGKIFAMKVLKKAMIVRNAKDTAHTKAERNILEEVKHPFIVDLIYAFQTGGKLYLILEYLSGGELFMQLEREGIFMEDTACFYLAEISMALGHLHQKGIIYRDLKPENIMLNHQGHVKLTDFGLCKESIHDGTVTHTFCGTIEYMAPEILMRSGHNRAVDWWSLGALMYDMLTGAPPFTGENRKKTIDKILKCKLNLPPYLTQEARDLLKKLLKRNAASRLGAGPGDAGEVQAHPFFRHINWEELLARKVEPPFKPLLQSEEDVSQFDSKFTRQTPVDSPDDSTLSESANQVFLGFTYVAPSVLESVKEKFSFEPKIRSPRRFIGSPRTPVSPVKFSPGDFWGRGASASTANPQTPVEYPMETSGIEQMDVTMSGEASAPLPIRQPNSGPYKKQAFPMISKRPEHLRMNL
Chain of Kappa-type opioid receptor (P41145 whole entry): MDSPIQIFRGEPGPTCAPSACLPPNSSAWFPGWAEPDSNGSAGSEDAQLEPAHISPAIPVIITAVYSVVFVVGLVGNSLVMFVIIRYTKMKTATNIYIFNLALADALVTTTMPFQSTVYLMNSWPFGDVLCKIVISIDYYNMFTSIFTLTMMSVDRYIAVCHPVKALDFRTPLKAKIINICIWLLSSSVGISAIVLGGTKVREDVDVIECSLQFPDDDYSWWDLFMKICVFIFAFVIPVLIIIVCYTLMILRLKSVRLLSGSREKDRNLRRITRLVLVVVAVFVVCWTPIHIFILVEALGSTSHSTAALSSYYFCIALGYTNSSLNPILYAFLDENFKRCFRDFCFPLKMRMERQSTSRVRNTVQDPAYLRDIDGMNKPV
Chain of Serine/threonine-protein kinase Nek3 (Homo sapiens) (P51956 whole entry): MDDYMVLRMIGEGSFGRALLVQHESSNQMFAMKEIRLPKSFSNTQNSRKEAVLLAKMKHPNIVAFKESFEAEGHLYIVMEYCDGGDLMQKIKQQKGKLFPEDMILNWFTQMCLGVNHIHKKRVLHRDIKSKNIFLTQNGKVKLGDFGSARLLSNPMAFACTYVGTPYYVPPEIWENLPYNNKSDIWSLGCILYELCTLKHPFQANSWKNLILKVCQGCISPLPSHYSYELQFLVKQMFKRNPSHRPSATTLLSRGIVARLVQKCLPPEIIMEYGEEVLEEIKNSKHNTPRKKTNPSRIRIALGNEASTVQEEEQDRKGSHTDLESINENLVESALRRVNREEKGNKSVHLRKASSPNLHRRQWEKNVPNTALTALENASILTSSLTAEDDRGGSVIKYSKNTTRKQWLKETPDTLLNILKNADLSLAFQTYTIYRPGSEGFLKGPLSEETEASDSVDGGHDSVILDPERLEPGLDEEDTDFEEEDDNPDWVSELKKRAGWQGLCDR

In the case of `CO[C@@H](C)c1c(Nc2ccc([C@H](N(C)C(=O)C3CCS(=O)(=O)CC3)C(F)(F)F)cc2)cnc2cc(Cl)nn12`, the % of control turned out to be 39% in test [1]; 40% in test [2]; 40% in test [4]; 23% in test [6]; 48% in [8]; 43% in test [9]. Besides, the % of inhibition in [3] was found to be 52%; in test [5], 7%; in test [7] it was 49.9%.

`N#CC1(c2ccccn2)CCN(Cc2cc(C(=O)N3CCCC3)c(=O)n3ccccc23)CC1` returned a % of inhibition in [10] of 46.8%. In addition, the % of control turned out to be 30% in test [11] and 34% in [12].

As for `FC(F)(F)c1ccc2c(c1)nc(-c1cccnc1)n2C1CC1`, the % of control in [13] was 53%.

Regarding `C[C@H](c1ccc(F)cc1)N(Cc1ccc(Cl)c(C(=O)O)c1)C(=O)c1cnc2ccccc2c1`, the % of inhibition in [14] came out at 39%; in [15] it was 28%.

Take `CCN(Cc1ccc(Cl)cc1)c1ncc(C(=O)NCCCN2CCCC2=O)c(NC2CCCC2)n1`: the % of control in [16] is 27%; in test [17] it was 35%.

On to `CC(C)(O)c1cncc(-c2nc3ccc(F)cc3n2C2CC2)c1`, for which the % of control in [18] came to 44%; in test [19], 48%.

Values taken from ChEMBL document CHEMBL5212743, “Selectivity Literature for EUbOPEN Chemogenomics Library wave 3” (2023).
